Results reported in patent US10479780B2, “Aminopyrazole derivatives” (Chugai Seiyaku Kabushiki Kaisha, priority 2015, dated 2019).

Assays:
Format in all cases: biochemical
human Src enzyme = molecular target: T1, human Src enzyme (Homo sapiens, UniProt P12931); assay: Src enzyme inhibitory activity (time-resolved fluorometry, biotinylated peptide phosphorylation); conditions: biotinylated peptide phosphorylation, read-out: SRC_IC50
T1 construct: purchased Carna Biosciences, Inc. 08-173
Procedure, shortened: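 Compounds were tested for blocking tyrosine phosphorylation of a biotinylated peptide substrate by recombinant human Src. Phosphorylated product was quantified by time-resolved fluorometry using europium cryptate and XL665 conjugates, and IC50 was calculated against the compound-free control.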

human Lck enzyme = molecular target: T2, human Lck enzyme (Homo sapiens, UniProt P06239); assay: Lck enzyme inhibitory activity (time-resolved fluorometry, biotinylated peptide phosphorylation); conditions: biotinylated peptide phosphorylation, read-out: LCK_IC50
T2 construct: purchased Carna Biosciences, Inc. 08-170
Procedure, shortened: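 Readout pairs a europium cryptate-labelled anti-phosphotyrosine antibody with XL665-streptavidin, measured by time-resolved fluorescence. IC50 derived from percent inhibition against untreated controls.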

human Yes1 enzyme = molecular target: T3, human Yes1 enzyme (Homo sapiens, UniProt P07947); assay: Yes1 enzyme inhibitory activity (time-resolved fluorometry, biotinylated peptide phosphorylation); conditions: biotinylated peptide phosphorylation, read-out: YES_IC50
T3 construct: made in house
Procedure, shortened: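 Inhibition was expressed against a compound-free control to give IC50, using TR-FRET read-out (Eu-cryptate anti-pTyr antibody, streptavidin-XL665).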

T2 sequence (P06239 whole entry): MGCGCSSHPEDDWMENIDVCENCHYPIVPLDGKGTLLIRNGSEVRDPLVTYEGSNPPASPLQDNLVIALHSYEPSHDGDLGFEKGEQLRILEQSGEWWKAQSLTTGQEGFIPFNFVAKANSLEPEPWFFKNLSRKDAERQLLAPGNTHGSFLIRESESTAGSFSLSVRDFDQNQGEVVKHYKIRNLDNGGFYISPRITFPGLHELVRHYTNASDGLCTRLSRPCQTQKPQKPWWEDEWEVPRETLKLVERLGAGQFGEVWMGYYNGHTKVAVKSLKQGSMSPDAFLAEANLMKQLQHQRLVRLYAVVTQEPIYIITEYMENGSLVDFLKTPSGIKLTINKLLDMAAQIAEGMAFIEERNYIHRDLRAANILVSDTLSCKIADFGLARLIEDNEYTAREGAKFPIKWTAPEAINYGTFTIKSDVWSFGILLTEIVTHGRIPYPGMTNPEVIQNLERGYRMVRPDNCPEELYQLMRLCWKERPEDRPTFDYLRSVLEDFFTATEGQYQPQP
T3 sequence (P07947 whole entry): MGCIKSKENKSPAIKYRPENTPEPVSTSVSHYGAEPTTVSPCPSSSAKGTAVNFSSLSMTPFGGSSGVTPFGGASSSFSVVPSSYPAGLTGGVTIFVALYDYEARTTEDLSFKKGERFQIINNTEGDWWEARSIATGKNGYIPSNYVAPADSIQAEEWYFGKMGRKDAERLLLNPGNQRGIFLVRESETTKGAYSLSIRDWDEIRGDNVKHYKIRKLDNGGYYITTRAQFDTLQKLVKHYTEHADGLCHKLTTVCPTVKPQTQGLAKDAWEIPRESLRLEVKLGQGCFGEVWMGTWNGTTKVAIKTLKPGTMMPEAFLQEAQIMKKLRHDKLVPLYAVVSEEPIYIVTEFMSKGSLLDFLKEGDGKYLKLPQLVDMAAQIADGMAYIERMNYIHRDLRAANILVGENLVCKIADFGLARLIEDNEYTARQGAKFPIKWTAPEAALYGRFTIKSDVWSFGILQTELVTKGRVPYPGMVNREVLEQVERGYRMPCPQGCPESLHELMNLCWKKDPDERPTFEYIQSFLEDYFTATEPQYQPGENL
T1 sequence (P12931 whole entry): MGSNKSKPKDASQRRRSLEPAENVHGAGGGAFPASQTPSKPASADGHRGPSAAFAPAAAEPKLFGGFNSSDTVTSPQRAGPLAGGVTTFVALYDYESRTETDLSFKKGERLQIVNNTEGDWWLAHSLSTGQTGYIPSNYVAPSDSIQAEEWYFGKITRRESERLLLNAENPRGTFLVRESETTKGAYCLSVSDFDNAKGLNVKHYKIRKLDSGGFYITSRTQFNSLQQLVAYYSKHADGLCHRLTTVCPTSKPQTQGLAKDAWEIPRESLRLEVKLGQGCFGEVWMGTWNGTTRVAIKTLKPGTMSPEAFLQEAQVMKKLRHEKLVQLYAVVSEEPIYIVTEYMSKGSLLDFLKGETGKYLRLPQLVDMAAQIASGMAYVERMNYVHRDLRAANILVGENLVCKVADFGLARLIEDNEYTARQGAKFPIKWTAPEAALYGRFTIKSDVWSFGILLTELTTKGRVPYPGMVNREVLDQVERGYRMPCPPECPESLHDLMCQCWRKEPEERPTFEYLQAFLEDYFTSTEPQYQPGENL

Row | IC50 (human Src enzyme) [nM] | IC50 (human Lck enzyme) [nM] | IC50 (human Yes1 enzyme) [nM] | Structure (SMILES)
1 | 23 | 4.6 | 3.3 | Cc1cc(Oc2c(F)cccc2F)ncc1-n1ncc(C(=O)c2cc3cc(OCC(F)F)c(NC4COC4)cc3[nH]2)c1N [Example 4-23-008, {5-amino-1-[6-(2,6-difluorophenoxy)-4-methylpyridin-3-yl]pyrazol-4-yl}-[5-(2,2-difluoroethoxy)-6-(oxetan-3-ylamino)-1H-indol-2-yl]methanone]
2 | 22 | 8.9 | 3.2 | Cc1cc(Oc2ccccc2F)ccc1-n1ncc(C(=O)c2cc3cc(OC(F)F)c(NC4COC4)cc3[nH]2)c1N [Example 4-23-009, [5-amino-1-[4-(2-fluorophenoxy)-2-methylphenyl]pyrazol-4-yl]-[5-(difluoromethoxy)-6-(oxetan-3-ylamino)-1H-indol-2-yl]methanone]
3 | 34 | 25 | 7.2 | Cc1cc(Oc2ccccc2F)ccc1-n1ncc(C(=O)c2cc3cc(OC(F)F)c(NC4CCN(S(C)(=O)=O)CC4)cc3[nH]2)c1N [Example 4-23-010, [5-amino-1-[4-(2-fluorophenoxy)-2-methylphenyl]pyrazol-4-yl]-[5-(difluoromethoxy)-6-[(1-methylsulfonylpiperidin-4-yl)amino]-1H-indol-2-yl]methanone]
4 | 63 | 19 | 7.6 | Cc1cc(Oc2ccccc2F)cc(F)c1-n1ncc(C(=O)c2cc3cc(OC(F)F)c(NC4COC4)cc3[nH]2)c1N [Example 4-23-011, [5-amino-1-[2-fluoro-4-(2-fluorophenoxy)-6-methylphenyl]pyrazol-4-yl]-[5-(difluoromethoxy)-6-(oxetan-3-ylamino)-1H-indol-2-yl]methanone]
5 | 70 | 31 | 14 | Cc1cc(Oc2ccccc2F)cc(F)c1-n1ncc(C(=O)c2cc3cc(OC(F)F)c(NC4CCN(S(C)(=O)=O)CC4)cc3[nH]2)c1N [Example 4-23-012, [5-amino-1-[2-fluoro-4-(2-fluorophenoxy)-6-methylphenyl]pyrazol-4-yl]-[5-(difluoromethoxy)-6-[(1-methylsulfonylpiperidin-4-yl)amino]-1H-indol-2-yl]methanone]
6 | 40 | 4.6 | 1.6 | Cc1cc(Oc2ccccc2F)ncc1-n1ncc(C(=O)c2cc3cc(OC(F)F)c(NC4COC4)cc3[nH]2)c1N [Example 4-23-013, [5-amino-1-[6-(2-fluorophenoxy)-4-methylpyridin-3-yl]pyrazol-4-yl]-[5-(difluoromethoxy)-6-(oxetan-3-ylamino)-1H-indol-2-yl]methanone]
7 | 22 | 9.2 | 3.5 | Cc1cc(Oc2c(F)cccc2F)ncc1-n1ncc(C(=O)c2cc3cc(OC(F)F)c(NC4COC4)cc3[nH]2)c1N [Example 4-23-014, [5-amino-1-[6-(2,6-difluorophenoxy)-4-methylpyridin-3-yl]pyrazol-4-yl]-[5-(difluoromethoxy)-6-(oxetan-3-ylamino)-1H-indol-2-yl]methanone]
8 | 49 | 23 | 5.4 | Cc1cc(Oc2c(F)cccc2F)ncc1-n1ncc(C(=O)c2cc3cc(OC(F)F)c(NC4CCN(S(C)(=O)=O)CC4)cc3[nH]2)c1N [Example 4-23-015, [5-amino-1-[6-(2,6-difluorophenoxy)-4-methylpyridin-3-yl]pyrazol-4-yl]-[5-(difluoromethoxy)-6-[(1-methylsulfonylpiperidin-4-yl)amino]-1H-indol-2-yl]methanone]
9 | 21 | 5.4 | 0.94 | Cc1cc(Oc2ccccc2F)ccc1-n1ncc(C(=O)c2cc3cc(OCC(F)F)c(NC4COC4)cc3[nH]2)c1N [Example 4-23-016, [5-amino-1-[4-(2-fluorophenoxy)-2-methylphenyl]pyrazol-4-yl]-[5-(2,2-difluoroethoxy)-6-(oxetan-3-ylamino)-1H-indol-2-yl]methanone]
